According to article PMC6213206, “Cyclopropane-Containing Fatty Acids from the Marine Bacterium Labrenzia sp. 011 with Antimicrobial and GPR84 Activity” (Marine Drugs, 2018):

What was measured:
[1] = test system: Pseudoroseovarius crassostreae DSM 16950T; test: disc diffusion assay; type: cell-based; conditions: Aliiroseovarius crassostreae, DSM16950T, 50 μg per disc, read-out: growth inhibition zone
Protocol: (§1) Compounds 1 and 2 were tested against a range of microorganisms, namely the Gram-positive bacterium Bacillus megaterium DSM 32, the Gram-negative bacterium Escherichia coli JM 83 and Pseudoroseovarius crassostreae DSM 16950^T; the fungal organisms utilized were Eurotium rubrum DSM 62631, Microbotryum violaceum MB#110229, and Mycotypha microspora MB#271115. Tests were performed according to Reference. 50 μg of pure compounds or positive controls were taken from a solution of 1 mg/mL and applied on sterile paper discs on agar plates of the corresponding medium for each test organism. Multidrug-resistant pathogens Escherichia coli I-11276b, MRSA LT-1338, MRSA LT-1334 were tested with 4 μg of compound 2 in each disc. Thereafter, suspensions of the organisms were sprayed on the agar and incubated. Miconazole and streptomycin were used as positive controls. Inhibition zones were measured from the edge of the disc to the end of the area free of growth. Only total inhibition (>1 mm) was considered as a positive result.

[2] = test system: Microbotryum violaceum MB#110229; test: disc diffusion assay; type: cell-based; conditions: 50 μg per disc, read-out: growth inhibition zone
Protocol: as §1

[3] = test system: Mycotypha microspora MB#271115; test: disc diffusion assay; type: cell-based; conditions: 50 μg per disc, read-out: growth inhibition zone
Protocol: as §1

[4] = test system: Eurotium rubrum DSM 62631; test: disc diffusion assay; type: cell-based; conditions: for zone of inhibition at 50 µg/disc: Aspergillus ruber, DSM62631, 50 μg per disc, read-out: growth inhibition zone
Protocol: as §1

Escherichia coli DSM 498 = test: disc diffusion assay; type: cell-based; conditions: DSM498, 50 μg per disc, read-out: growth inhibition zone
human GPR84 [5] = target: T1, human GPR84 (Homo sapiens, UniProt Q9NQS5); test: cAMP accumulation assay in CHO cells expressing human GPR84; type: cell-based; design: Emax: dose or concentration left out as unconfirmed; conditions: for activity in cAMP assay (in words): Gi-mediated signaling; for cAMP Assay percent receptor activation: at 100 μM, forskolin 10 μM; for EC50: read-out: cAMP Assay EC50 ± SD
T1 construct: CHO-hGPR84)
Text: (§2) cAMP accumulation assays determined the potency of the test compounds to inhibit forskolin-induced cAMP accumulation in Chinese hamster ovary (CHO) cells, stably expressing human GPR84, whereas the β-arrestin recruitment assays used the enzyme complementation technology.
(§3) The recombinant CHO cell line expressing the human GPR84 (CHO-hGPR84) with a β-galactosidase fragment and β-arrestin containing the complementary fragment of the enzyme was purchased from DiscoverX (Fremont, CA, USA). This cell line was used for the β-arrestin recruitment assays as well as for cAMP accumulation assays. The CHO-hGPR84 cells were cultured in F12 medium supplemented with 10% FCS, 100 units/mL penicillin G, 100 μg/mL streptomycin, 800 μg/mL G 418, 300 μg/mL hygromycin B, and 1% ultraglutamin (Invitrogen, Carlsbad, CA or Sigma-Aldrich, St. Louis, MO, USA). Stock solutions of compounds were prepared in DMSO (final DMSO concentration: 1%). Data were analyzed using Graph Pad Prism version 6.0 (San Diego, CA, USA). Concentration-response data were fitted by nonlinear regression to estimate EC50 values.
cAMP assays were performed as previously described. CHO cells overexpressing the human GPR84 were stimulated with forskolin (10 μM) in the absence (control) or presence of test compound for 15 min. The reaction was stopped by the addition of hot (90 °C) lysis solution containing 4 mM EDTA and 0.01% Triton X-100 in water. cAMP levels were quantified by a radioactive assay using [³H]cAMP (Perkin-Elmer, Rodgau, Germany). The forskolin-induced change in cAMP concentration in the presence of the test compound was expressed as a percentage of the response to forskolin in the absence of agonist (% of control). Three independent experiments, each in duplicates were performed.

human GPR84 [6] = target: T1, human GPR84; test: β-arrestin recruitment assay (β-galactosidase enzyme complementation) in CHO-hGPR84 cells; type: cell-based; conditions: for EC50: n = 5, read-out: β-Arrestin Assay EC50 ± SD; for Emax: relative to maximal effect of full agonist embelin (10 μM) = 100%, read-out: β-Arrestin Assay Efficacy (Emax)
Text: as §2
as §3, with “The CHO-hGPR84 cells were cultured in F12 medium supplemented with 10% FCS, 100 units/mL penicillin G, 100 μg/mL streptomycin, 800 μg/mL G 418, 300 μg/mL hygromycin B, and 1% ultraglutamin (Invitrogen, Carlsbad, CA or Sigma-Aldrich, St. Louis, MO, USA).” left out
β-arrestin assays were performed as previously described. Briefly, CHO cells expressing the human GPR84 with a β-galactosidase fragment and β-arrestin containing the complementary fragment of the enzyme were incubated with a series of compound dilutions (in DMSO, final DMSO concentration: 1%) for 90 min before adding the detection reagent (DiscoverX®, Fremont, CA, USA). After 60 min of incubation at room temperature the luminescence was measured using an NXT plate reader (Perkin-Elmer, Rodgau, Germany). Three to five independent experiments were performed, each in duplicates.

MRSA LT-1334 = test: disc diffusion assay, multidrug-resistant pathogen; type: cell-based; conditions: Staphylococcus aureus; MRSA LT-1334 (multidrug-resistant); 4 μg per disc; read-out: growth inhibition zone
Protocol: as §1

MRSA LT-1338 = test: disc diffusion assay, multidrug-resistant pathogen; type: cell-based; conditions: Staphylococcus aureus; MRSA LT-1338 (multidrug-resistant); 4 μg per disc; read-out: growth inhibition zone
Protocol: as §1

[7] = test system: Escherichia coli I-11276b; test: disc diffusion assay, multidrug-resistant pathogen; type: cell-based; conditions: I11276B; Escherichia coli I-11276b (multidrug-resistant); 4 μg per disc; read-out: growth inhibition zone
Protocol: as §1

[8] = test system: Bacillus megaterium DSM 32; test: disc diffusion assay; type: cell-based; conditions: Priestia megaterium, DSM32, 50 μg per disc, read-out: growth inhibition zone
Protocol: as §1

human GPR84 [9] = target: T1, human GPR84; design: method as in PMID 28406627; conditions: relative to maximal effect of full agonist decanoic acid (100 μM) = 100%; cited from earlier work

T1 sequence (Q9NQS5 whole entry): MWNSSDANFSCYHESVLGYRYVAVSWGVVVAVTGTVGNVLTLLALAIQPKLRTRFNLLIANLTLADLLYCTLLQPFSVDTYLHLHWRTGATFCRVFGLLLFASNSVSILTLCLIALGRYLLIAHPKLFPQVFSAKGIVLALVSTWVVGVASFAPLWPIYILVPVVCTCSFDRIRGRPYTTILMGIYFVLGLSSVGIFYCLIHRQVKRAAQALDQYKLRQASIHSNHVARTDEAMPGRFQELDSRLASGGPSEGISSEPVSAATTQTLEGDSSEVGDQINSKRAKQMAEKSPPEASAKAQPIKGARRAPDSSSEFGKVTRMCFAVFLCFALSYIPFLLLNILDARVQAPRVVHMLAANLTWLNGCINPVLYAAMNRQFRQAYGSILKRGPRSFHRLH

Compound	cAMP Assay percent receptor activation (human GPR84 [5])	EC50 (human GPR84 [5])	EC50 (human GPR84 [6])	Emax (human GPR84 [6])	zone of inhibition at 50 µg/disc [1]	zone of inhibition at 50 µg/disc [2]	zone of inhibition at 50 µg/disc [3]	zone of inhibition at 50 µg/disc (Escherichia coli DSM 498)	activity in cAMP assay (in words) (human GPR84 [5])	zone of inhibition at 50 µg/disc [8]	zone of inhibition at 50 µg/disc [4]	further results
CCCCCCCCCC(=O)O [Decanoic acid]	–	–	–	–	–	–	–	–	–	–	–	cAMP Assay Efficacy (Emax) (human GPR84 [9]): 100% [26]
Clc1ccc(COC(Cn2ccnc2)c2ccc(Cl)cc2Cl)c(Cl)c1 (stereo not shown) [Miconazole, reference compound]	–	–	–	–	–	6 mm	9 mm	–	–	–	8 mm	–
[H]/N=C(/N)N[C@H]1[C@H](O)[C@@H](O)[C@H](O[C@@H]2O[C@@H](C)[C@](O)(C=O)[C@H]2O[C@@H]2O[C@@H](CO)[C@H](O)[C@@H](O)[C@@H]2NC)[C@@H](N/C(N)=N\[H])[C@@H]1O [Streptomycin, reference compound]	–	–	–	–	6 mm	–	–	6 mm	–	9 mm	–	–

Now from value to molecule, other results behind:

cAMP Assay percent receptor activation (human GPR84 [5])	EC50 (human GPR84 [5])	EC50 (human GPR84 [6])	Emax (human GPR84 [6])	Compound	zone of inhibition at 50 µg/disc [1]	zone of inhibition at 50 µg/disc [2]	zone of inhibition at 50 µg/disc [3]	zone of inhibition at 50 µg/disc (Escherichia coli DSM 498)	activity in cAMP assay (in words) (human GPR84 [5])	zone of inhibition at 50 µg/disc [8]	zone of inhibition at 50 µg/disc [4]	further results
0%	> 100 µM	> 30 µM	–	CCCCCC[C@H]1C[C@H]1CCCC(=O)O (relative stereo) [Compound 1, cis-4-(2-hexylcyclopropyl)-butanoic acid]	5 mm	8 mm	3 mm	2 mm	inactive	–	–	growth inhibition zone ([4]; 50 μg per disc): devoid of activity; activity in β-arrestin assay (in words) (human GPR84 [6]): inactive; β-Arrestin Assay percent receptor activation (human GPR84 [6]; at 30 μM): 17%
24%	> 100 µM	0.114 ± 0.135 µM	54%	CCCCCC[C@H]1C[C@H]1CC(=O)O (relative stereo) [Compound 2, cis-2-(2-hexylcyclopropyl)-acetic acid]	5 mm	10 mm	6 mm	3 mm	did neither induce nor block Gi-mediated signaling	10 mm	10 mm	zone of inhibition at 4 µg/disc (MRSA LT-1334): 3 mm; zone of inhibition at 4 µg/disc (MRSA LT-1338): 2 mm; zone of inhibition at 4 µg/disc [7]: 2 mm; potency in β-arrestin assay relative to dodecanoic acid (human GPR84 [6]; fold more potent than dodecanoic acid (EC50 = 2.84 μM)): 25 fold
–	8.87 ± 4.46 µM	2.84 ± 0.54 µM	95%	CCCCCCCCCCCC(=O)O [Dodecanoic acid, reference compound]	–	–	–	–	–	–	–	Emax (human GPR84 [5]; CHO, read-out: cAMP Assay Efficacy (Emax)): 94%
